In patent publication US20220298186A1, “BIARYL DIALKYL PHOSPHINE OXIDE FPR2 AGONISTS” (BRISTOL-MYERS SQUIBB COMPANY, priority 2019, published 2022):

Experiments:
human FPR2 receptors = molecular target: T1, human FPR2 receptors (Homo sapiens, UniProt P25090); experiment: FPR2 cyclic adenosine monophosphate (cAMP) assay; type: cell-based; settings: CHO cells overexpressing human FPR2; forskolin 5 μM, IBMX 200 μM; 30 min at rt; inhibition of cAMP production (HTRF); read-out: hFPR2 cAMP2 EC50
T1 sequence (P25090 1-351): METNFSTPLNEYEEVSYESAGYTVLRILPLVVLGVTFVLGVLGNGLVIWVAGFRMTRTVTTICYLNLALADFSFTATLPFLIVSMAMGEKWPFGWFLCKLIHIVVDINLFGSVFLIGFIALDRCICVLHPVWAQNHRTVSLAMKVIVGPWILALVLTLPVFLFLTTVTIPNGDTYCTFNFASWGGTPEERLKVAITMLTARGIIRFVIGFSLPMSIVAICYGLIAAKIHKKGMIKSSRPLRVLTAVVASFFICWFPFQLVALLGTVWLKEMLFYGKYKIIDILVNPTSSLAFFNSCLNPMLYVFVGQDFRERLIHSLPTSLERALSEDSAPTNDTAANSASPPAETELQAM
Excerpt: (§1) N-formyl peptide receptors (FPRs) are a family of chemo attractant receptors that facilitate leukocyte response during inflammation. FPRs belong to the seven-transmembrane G protein-coupled receptor superfamily and are linked to inhibitory G-proteins (Gi). Three family members (FPR1, FPR2 and FPR3) have been identified in humans and are predominantly found in myeloid cells with varied distribution and have also been reported in multiple organs and tissues. After agonist binding, the FPRs activate a multitude of physiological pathways, such as intra cellular signaling transduction, Ca^2+ mobilization and transcription. The family interacts with a diverse set of ligands that includes proteins, polypeptides and fatty acid metabolites which activate both pro-inflammatory and pro-resolution downstream responses. FPR2 and FPR1 Cyclic Adenosine Monophosphate (cAMP) Assays were used to measure the activity of the compounds in this patent.
(§2) FPR2 and FPR1 Cyclic Adenosine Monophosphate (cAMP) Assays. A mixture of forskolin (5 μM final for FPR2 or 10 μM final for FPR1) and IBMX (200 μM final) were added to 384-well Proxiplates (Perkin-Elmer) pre-dotted with test compounds in DMSO (1% final) at final concentrations in the range of 0.020 nM to 100 μM. Chinese Hamster Ovary cells (CHO) overexpressing human FPR1 or human FPR2 receptors were cultured in F-12 (Ham's) medium supplemented with 10% qualified FBS, 250 μg/mL zeocin and 300 μg/mL hygromycin (Life Technologies). Reactions were initiated by adding 2,000 human FPR2 cells per well or 4,000 human FPR1 cells per well in Dulbecco's PBS (with calcium and magnesium) (Life Technologies) supplemented with 0.1% BSA (Perkin-Elmer). The reaction mixtures were incubated for 30 min at rt. The level of intracellular cAMP was determined using the HTRF HiRange cAMP assay reagent kit (Cisbio) according to manufacturer's instruction. Solutions of cryptate conjugated anti-cAMP and d2 flurorophore-labelled cAMP were made in a supplied lysis buffer separately. Upon completion of the reaction, the cells were lysed with equal volume of the d2-cAMP solution and anti-cAMP solution. After a 1-h rt incubation, time-resolved fluorescence intensity was measured using the Envision (Perkin-Elmer) at 400 nm excitation and dual emission at 590 nm and 665 nm. A calibration curve was constructed with an external cAMP standard at concentrations ranging from 1 μM to 0.1 μM by plotting the fluorescent intensity ratio from 665 nm emission to the intensity from the 590 nm emission against cAMP concentrations. The potency and activity of a compound to inhibit cAMP production was then determined by fitting to a 4-parametric logistic equation from a plot of cAMP level versus compound concentrations.
(§3) The examples disclosed below were tested in the FPR2 and FPR1 cAMP assay described above and found having FPR2 and/or FPR1 agonist activity. Table 1 below lists EC50 values in the FPR2 and FPR1 cAMP assays measured for the following examples.

human FPR1 receptors = molecular target: T2, human FPR1 receptors (Homo sapiens, UniProt P21462); experiment: FPR1 cyclic adenosine monophosphate (cAMP) assay; type: cell-based; settings: CHO cells overexpressing human FPR1; forskolin 10 μM, IBMX 200 μM; 30 min at rt; inhibition of cAMP production (HTRF); read-out: hFPR1 cAMP EC50
T2 sequence (P21462 1-350): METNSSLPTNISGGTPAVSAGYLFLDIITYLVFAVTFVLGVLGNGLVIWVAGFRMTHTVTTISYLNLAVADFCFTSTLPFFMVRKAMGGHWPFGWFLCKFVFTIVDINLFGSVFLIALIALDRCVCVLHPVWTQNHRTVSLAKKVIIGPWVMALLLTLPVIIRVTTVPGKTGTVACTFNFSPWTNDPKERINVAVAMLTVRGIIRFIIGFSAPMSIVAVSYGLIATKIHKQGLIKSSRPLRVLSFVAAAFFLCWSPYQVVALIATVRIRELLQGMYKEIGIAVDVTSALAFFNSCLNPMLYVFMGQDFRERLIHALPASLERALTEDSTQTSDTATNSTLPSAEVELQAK
Excerpt: as §1, §2, §3

| SMILES | EC50 (human FPR2 receptors) [nM] | EC50 (human FPR1 receptors) [nM] |
| --- | --- | --- |
| CP(C)(=O)c1ccccc1-c1ccc(N2CCC[C@@H](NC(=O)Nc3ccc(Cl)cc3F)C2=O)c(F)c1F [Example 1, (R)-1-(4-Chloro-2-fluorophenyl)-3-(1-(2′-(dimethylphosphoryl)-2,3-difluoro-[1,1′-biphenyl]-4-yl)-2-oxopiperidin-3-yl)urea] | 0.12 | 110 |
| CP(C)(=O)c1ccccc1-c1ccc(N2CCC[C@@H](NC(=O)Nc3ccc(C(F)(F)F)cc3F)C2=O)c(F)c1F [Example 2, 3-[(3R)-1-[2′-(Dimethylphosphoryl)-2,3-difluoro-[1,1′-biphenyl]-4-yl]-2-oxopiperidin-3-yl]-1-[2-fluoro-4-(trifluoromethyl)phenyl] urea] | 0.18 | 300 |
| CCP(=O)(CC)c1ccccc1-c1cc(F)c(N2CCC[C@@H](NC(=O)Nc3ccc(Cl)cc3F)C2=O)c(F)c1 [Example 3, 1-(4-Chloro-2-fluorophenyl)-3-[(3R)-1-[2′-(diethylphosphoryl)-3,5-difluoro-[1,1′-biphenyl]-4-yl]-2-oxopiperidin-3-yl]urea] | 0.17 | 420 |
| CP(C)(=O)c1ccccc1-c1ccc(N2CCC[C@@H](NC(=O)Nc3ncc(Cl)cc3F)C2=O)c(C2CC2)c1 [Example 4, 1-(5-Chloro-3-fluoropyridin-2-yl)-3-[(3R)-1-[3-cyclopropyl-2′-(dimethylphosphoryl)-[1,1′-biphenyl]-4-yl]-2-oxopiperidin-3-yl]urea] | 0.63 | 7.1 |
| CP(C)(=O)c1ccccc1-c1ccc(N2CCC[C@@H](NC(=O)Nc3ccc(Cl)cc3F)C2=O)c(C2CC2)c1 [Example 5, 1-(4-Chloro-2-fluorophenyl)-3-[(3R)-1-[3-cyclopropyl-2′-(dimethylphosphoryl)-[1,1′-biphenyl]-4-yl]-2-oxopiperidin-3-yl]urea] | 0.76 | 17 |
| COc1ccc(NC(=O)N[C@@H]2CCCN(c3ccc(-c4ccccc4P(C)(C)=O)c(F)c3F)C2=O)c(F)c1 [Example 6, 3-[(3R)-1-[2′-(Dimethylphosphoryl)-2,3-difluoro-[1,1′-biphenyl]-4-yl]-2-oxopiperidin-3-yl]-1-(2-fluoro-4-methoxyphenyl)urea] | 0.86 | 430 |
| CP(C)(=O)c1ccccc1-c1cc(F)c(N2CCC[C@@H](NC(=O)Nc3ccc(Cl)cc3F)C2=O)c(F)c1 [Example 7, 1-(4-Chloro-2-fluorophenyl)-3-[(3R)-1-[2′-(dimethylphosphoryl)-3,5-difluoro-[1,1′-biphenyl]-4-yl]-2-oxopiperidin-3-yl]urea] | 0.79 | 2600 |
| CP(C)(=O)c1ccccc1-c1ccc(N2CCC[C@@H](NC(=O)Nc3cnc(Cl)cn3)C2=O)c(F)c1F [Example 8, 1-(5-Chloropyrazin-2-yl)-3-[(3R)-1-[2′-(dimethylphosphoryl)-2,3-difluoro-[1,1′-biphenyl]-4-yl]-2-oxopiperidin-3-yl]urea] | 1.5 | 1100 |
| CP(C)(=O)c1ccccc1-c1ccc(N2CCC[C@@H](NC(=O)Nc3ncc(Cl)cc3F)C2=O)c(F)c1F [Example 9, 1-(5-Chloro-3-fluoropyridin-2-yl)-3-[(3R)-1-[2′-(dimethylphosphoryl)-2,3-difluoro-[1,1′-biphenyl]-4-yl]-2-oxopiperidin-3-yl]urea] | 2.2 | 1400 |
| CP(C)(=O)c1ccccc1-c1ccc(N2CCC[C@@H](NC(=O)Nc3ccc(OC(F)(F)F)cc3)C2=O)c(F)c1F [Example 10, 3-[(3R)-1-[2′-(Dimethylphosphoryl)-2,3-difluoro-[1,1′-biphenyl]-4-yl]-2-oxopiperidin-3-yl]-1-[4-(trifluoromethoxy)phenyl] urea] | 1.4 | 370 |
| CP(C)(=O)c1ccccc1-c1cc(F)c(N2CCC[C@@H](NC(=O)Nc3ccc(C(F)(F)F)cc3F)C2=O)c(F)c1 [Example 11, 3-[(3R)-1-[2′-(Dimethylphosphoryl)-3,5-difluoro-[1,1′-biphenyl]-4-yl]-2-oxopiperidin-3-yl]-1-[2-fluoro-4-(trifluoromethyl)phenyl] urea] | 2.6 | 1700 |
| CP(C)(=O)c1ccccc1-c1ccc(N2CCC[C@@H](NC(=O)Nc3ccc(C(F)(F)F)cn3)C2=O)c(F)c1F [Example 12, 3-[(3R)-1-[2′-(Dimethylphosphoryl)-2,3-difluoro-[1,1′-biphenyl]-4-yl]-2-oxopiperidin-3-yl]-1-[5-(trifluoromethyl)pyridin-2-yl]urea] | 2.7 | 1300 |
| COc1ccc(NC(=O)N[C@@H]2CCCN(c3c(F)cc(-c4ccccc4P(C)(C)=O)cc3F)C2=O)cc1 [Example 13, 3-[(3R)-1-[2′-(Dimethylphosphoryl)-3,5-difluoro-[1,1′-biphenyl]-4-yl]-2-oxopiperidin-3-yl]-1-(4-methoxyphenyl)urea] | 5.6 | 2400 |
| CCP(=O)(CC)c1ccccc1-c1ccc(N2CCC[C@@H](NC(=O)Nc3ncc(Cl)cc3F)C2=O)c(F)c1F [Example 14, 1-(5-Chloro-3-fluoropyridin-2-yl)-3-[(3R)-1-[2′-(diethylphosphoryl)-2,3-difluoro-[1,1′-biphenyl]-4-yl]-2-oxopiperidin-3-yl]urea] | 6 | 1500 |
| CCP(=O)(CC)c1ccccc1-c1cc(F)c(N2CCC[C@@H](NC(=O)Nc3ncc(Cl)cc3F)C2=O)c(F)c1 [Example 15, 1-(5-Chloro-3-fluoropyridin-2-yl)-3-[(3R)-1-[2′-(diethylphosphoryl)-3,5-difluoro-[1,1′-biphenyl]-4-yl]-2-oxopiperidin-3-yl]urea] | 8.3 | 7000 |
| CP(C)(=O)c1ccccc1-c1ccc(N2CCC[C@@H](NC(=O)Nc3ccc(OC(F)(F)F)cc3F)C2=O)c(F)c1F [Example 16, 3-[(3R)-1-[2′-(Dimethylphosphoryl)-2,3-difluoro-[1,1′-biphenyl]-4-yl]-2-oxopiperidin-3-yl]-1-[2-fluoro-4-(trifluoromethoxy)phenyl] urea] | 8.4 | 1800 |
| CP(C)(=O)c1ccccc1-c1cc(F)c(N2CCC[C@@H](NC(=O)Nc3cnc(Cl)cn3)C2=O)c(F)c1 [Example 17, 1-(5-Chloropyrazin-2-yl)-3-[(3R)-1-[2′-(dimethylphosphoryl)-3,5-difluoro-[1,1′-biphenyl]-4-yl]-2-oxopiperidin-3-yl]urea] | 8.6 | > 10000 |
| CP(C)(=O)c1ccccc1-c1ccc(N2CCC[C@@H](NC(=O)Nc3ncc(C(F)(F)F)cc3F)C2=O)c(F)c1F [Example 18] | 11.6 | > 10000 |
| CP(C)(=O)c1ccccc1-c1ccc(N2CCC[C@@H](NC(=O)Nc3ccc(Cl)cc3F)C2=O)cn1 [Example 19, 1-(4-Chloro-2-fluorophenyl)-3-[(3R)-1-{6-[2-(dimethylphosphoryl)phenyl]pyridin-3-yl}-2-oxopiperidin-3-yl]urea] | 16.7 | 140 |
